Literature values, collected in US20070025918A1, “Magnetic resonance imaging (MRI) agents: water soluble carbon-13 enriched fullerene and carbon nanotubes for use with dynamic nuclear polarization” (General Electric Company, priority 2005, published 2007).

Assays:
[1] = THF and acetone

Substance: C60F60
- solubility in water: virtually insoluble
- solubility in organic solvents [1]: soluble
